According to patent US11724992B2 (Novartis AG, priority 2017, dated 2023):

What follows are compounds tested on IL-1β production in PMA-differentiated THP-1 cells (assay: IL-1β production in PMA-differentiated THP-1 cells stimulated with gramicidin (hTHP-1 assay, 2% fetal bovine serum; Procedures 1-3)). Settings: hTHP-1 assay containing 2% fetal bovine serum; class symbols; read-out: hTHP-1 IC50 (Average IC50 of compounds in hTHP-1 assay).
Assay type: cell-based, human
Procedure, shortened: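 PMA-differentiated (20 ng/ml, 16-18 h) THP-1 cells in RPMI with 2% FBS, 50,000 cells/well, preincubated 1 h with compound (final 100–0.0017 μM, 0.37% DMSO), then stimulated with 5 μM gramicidin for 2 h. Supernatant IL-1β measured by HTRF.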

IC50, 1000 to 5000 nM:
CC1CCc2cc3c(c(NC(=O)N=S(N)(=O)c4cnc(C(C)(C)O)s4)c21)CCC3 (single isomer, unassigned) [Example 333, (S,R) or (S,S)-2-(2-hydroxypropan-2-yl)-N′-((3-methyl-1,2,3,5,6,7-hexahydro-s-indacen-4-yl)carbamoyl)thiazole-5-sulfonimidamide]
CC(C)(O)c1ncc(S(N)(=O)=NC(=O)Nc2c3c(cc4c2CCC4=O)CCC3)s1 (single isomer, unassigned) [Example 335, (S) or (R)-2-(2-Hydroxypropan-2-yl)-N′-((1-oxo-1,2,3,5,6,7-hexahydro-s-indacen-4-yl)carbamoyl)thiazole-5-sulfonimidamide from Example 293]
CC(C)(O)c1ncc(S(N)(=O)=NC(=O)Nc2c3c(cc4c2OCC4)CCC3)s1 (single isomer, unassigned) [Example 344, (R) or (S)-2-(2-hydroxypropan-2-yl)-N′-((3,5,6,7-tetrahydro-2H-indeno[5,6-b]furan-8-yl)carbamoyl)thiazole-5-sulfonimidamide]
CC(C)(O)c1cnc(S(N)(=O)=NC(=O)Nc2c3c(cc4c2CCO4)CCC3)s1 (single isomer, unassigned) [Example 348, (S) or (R)-5-(2-hydroxypropan-2-yl)-N′-((3,5,6,7-tetrahydro-2H-indeno[5,6-b]furan-4-yl)carbamoyl)thiazole-2-sulfonimidamide]
CC(C)(O)c1cnc(S(N)(=O)=NC(=O)Nc2c3c(cc4c2OCC4)CCC3)s1 (single isomer, unassigned) [Example 349, (S) or (R)-5-(2-hydroxypropan-2-yl)-N′-((3,5,6,7-tetrahydro-2H-indeno[5,6-b]furan-8-yl)carbamoyl)thiazole-2-sulfonimidamide]
CC(C)(O)c1csc(S(N)(=O)=NC(=O)Nc2c3c(cc4c2OCC4)CCC3)n1 (single isomer, unassigned) [Example 353, (S) or (R)-4-(2-hydroxypropan-2-yl)-N′-((3,5,6,7-tetrahydro-2H-indeno[5,6-b]furan-8-yl)carbamoyl)thiazole-2-sulfonimidamide]
CN(C)C(C)(C)c1ccc(S(N)(=O)=NC(=O)Nc2c3c(cc4c2CCC4)CCC3)cc1 (single isomer, unassigned) [Example 362, (S) or (R)-4-(2-(dimethylamino)propan-2-yl)-N′-((1,2,3,5,6,7-hexahydro-s-indacen-4-yl)carbamoyl)benzenesulfonimidamide]
CC(C)(O)c1ncc(S(N)(=O)=NC(=O)Nc2c3c(cc4c2C(=O)CC4)CCC3)s1 (single isomer, unassigned) [Example 363, (S) or (R)-2-(2-Hydroxypropan-2-yl)-N′-((3-oxo-1,2,3,5,6,7-hexahydro-s-indacen-4-yl)carbamoyl)thiazole-5-sulfonimidamide]

IC50, 8 to 40 nM:
CC1CCc2cc3c(c(NC(=O)N=S(N)(=O)c4cnc(C(C)(C)O)s4)c21)CCC3 (single isomer, unassigned) [Example 334, (R,S) or (R,R)-2-(2-hydroxypropan-2-yl)-N′-((3-methyl-1,2,3,5,6,7-hexahydro-s-indacen-4-yl)carbamoyl)thiazole-5-sulfonimidamide]
CC(C)(O)c1cnc(S(N)(=O)=NC(=O)Nc2c3c(cc4c2CCO4)CCC3)s1 (single isomer, unassigned) [Example 347, (R) or (S)-5-(2-hydroxypropan-2-yl)-N′-((3,5,6,7-tetrahydro-2H-indeno[5,6-b]furan-4-yl)carbamoyl)thiazole-2-sulfonimidamide]
CC(C)(O)c1csc(S(N)(=O)=NC(=O)Nc2c3c(cc4c2OCC4)CCC3)n1 (single isomer, unassigned) [Example 354, (R) or (S)-4-(2-hydroxypropan-2-yl)-N′-((3,5,6,7-tetrahydro-2H-indeno[5,6-b]furan-8-yl)carbamoyl)thiazole-2-sulfonimidamide]
Cc1sc(S(N)(=O)=NC(=O)Nc2c3c(cc4c2CCC4)CCC3)nc1C(C)(C)O (single isomer, unassigned) [Example 359, (R) or (S)-N′-((1,2,3,5,6,7-hexahydro-s-indacen-4-yl)carbamoyl)-4-(2-hydroxypropan-2-yl)-5-methylthiazole-2-sulfonimidamide]

IC50, 5000 to 30000 nM:
Cc1nc(C(C)(C)O)ccc1S(N)(=O)=NC(=O)Nc1c2c(cc3c1CCC3)CCC2 (single isomer, unassigned) [Example 346, (R) or (S)-N′-((1,2,3,5,6,7-hexahydro-s-indacen-4-yl)carbamoyl)-6-(2-hydroxypropan-2-yl)-2-methylpyridine-3-sulfonimidamide]

IC50, 40 to 200 nM:
CC(C)(O)c1ncc(S(N)(=O)=NC(=O)Nc2c3c(cc4c2OCC4)CCC3)s1 (single isomer, unassigned) [Example 343, (R) or (S)-2-(2-hydroxypropan-2-yl)-N′-((3,5,6,7-tetrahydro-2H-indeno[5,6-b]furan-8-yl)carbamoyl)thiazole-5-sulfonimidamide]
CC(C)(O)c1cnc(S(N)(=O)=NC(=O)Nc2c3c(cc4c2OCC4)CCC3)s1 (single isomer, unassigned) [Example 350, (R) or (S)-5-(2-hydroxypropan-2-yl)-N′-((3,5,6,7-tetrahydro-2H-indeno[5,6-b]furan-8-yl)carbamoyl)thiazole-2-sulfonimidamide]
CC(C)(O)c1cnc(S(N)(=O)=NC(=O)Nc2c3c(c(Br)c4c2CCC4)CCC3)s1 (single isomer, unassigned) [Example 352, (R) or (S)-N′-((8-bromo-1,2,3,5,6,7-hexahydro-s-indacen-4-yl)carbamoyl)-5-(2-hydroxypropan-2-yl)thiazole-2-sulfonimidamide]
CN(C)C(C)(C)c1ccc(S(N)(=O)=NC(=O)Nc2c3c(cc4c2CCC4)CCC3)cc1 (single isomer, unassigned) [Example 361, (R) or (S)-4-(2-(dimethylamino)propan-2-yl)-N′-((1,2,3,5,6,7-hexahydro-s-indacen-4-yl)carbamoyl)benzenesulfonimidamide]
CC(C)(O)c1ncc(S(N)(=O)=NC(=O)Nc2c3c(cc4c2C(=O)CC4)CCC3)s1 (single isomer, unassigned) [Example 364, (R) or (S)-2-(2-Hydroxypropan-2-yl)-N′-((3-oxo-1,2,3,5,6,7-hexahydro-s-indacen-4-yl)carbamoyl)thiazole-5-sulfonimidamide]

IC50, 200 to 1000 nM:
CC1CCc2cc3c(c(NC(=O)N=S(N)(=O)c4cnc(C(C)(C)O)s4)c21)CCC3 (single isomer, unassigned) [Example 332, (R,R) or (R,S)-2-(2-hydroxypropan-2-yl)-N′-((3-methyl-1,2,3,5,6,7-hexahydro-s-indacen-4-yl)carbamoyl)thiazole-5-sulfonimidamide]
CC(C)(O)c1ncc(S(N)(=O)=NC(=O)Nc2c3c(cc4c2CCC4=O)CCC3)s1 (single isomer, unassigned) [Example 336, (R) or (S)-2-(2-Hydroxypropan-2-yl)-N′-((1-oxo-1,2,3,5,6,7-hexahydro-s-indacen-4-yl)carbamoyl)thiazole-5-sulfonimidamide from Example 293]
CC(C)(O)c1csc(S(N)(=O)=NC(=O)Nc2c3c(cc4c2CC4)CCC3)n1 (single isomer, unassigned) [Example 342, (R) or (S)-4-(2-hydroxypropan-2-yl)-N′-((2,4,5,6-tetrahydro-1H-cyclobuta[f]inden-3-yl)carbamoyl)thiazole-2-sulfonimidamide]
Cc1nc(C(C)(C)O)ccc1S(N)(=O)=NC(=O)Nc1c2c(cc3c1CCC3)CCC2 (single isomer, unassigned) [Example 345, (R) or (S)-N′-((1,2,3,5,6,7-hexahydro-s-indacen-4-yl)carbamoyl)-6-(2-hydroxypropan-2-yl)-2-methylpyridine-3-sulfonimidamide]
CC(C)(O)c1cnc(S(N)(=O)=NC(=O)Nc2c3c(c(Br)c4c2CCC4)CCC3)s1 (single isomer, unassigned) [Example 351, (S) or (R)-N′-((8-bromo-1,2,3,5,6,7-hexahydro-s-indacen-4-yl)carbamoyl)-5-(2-hydroxypropan-2-yl)thiazole-2-sulfonimidamide]
CC(C)(O)c1ncc(S(N)(=O)=NC(=O)Nc2c3c(cc4c2CC4)CC3)s1 (single isomer, unassigned) [Example 356, (S) or (R)-2-(2-hydroxypropan-2-yl)-N′-(tricyclo[6.2.0.03,6]deca-1,3(6),7-trien-2-ylcarbamoyl)thiazole-5-sulfonimidamide]
Cc1sc(S(N)(=O)=NC(=O)Nc2c3c(cc4c2CCC4)CCC3)nc1C(C)(C)O (single isomer, unassigned) [Example 360, (S) or (R)-N′-((1,2,3,5,6,7-hexahydro-s-indacen-4-yl)carbamoyl)-4-(2-hydroxypropan-2-yl)-5-methylthiazole-2-sulfonimidamide]

IC50, < 8 nM:
CC(C)(O)c1csc(S(N)(=O)=NC(=O)Nc2c3c(cc4c2CC4)CCC3)n1 (single isomer, unassigned) [Example 341, (R) or (S)-4-(2-hydroxypropan-2-yl)-N′-((2,4,5,6-tetrahydro-1H-cyclobuta[f]inden-3-yl)carbamoyl)thiazole-2-sulfonimidamide]
CC(C)(O)c1ncc(S(N)(=O)=NC(=O)Nc2c3c(cc4c2CC4)CC3)s1 (single isomer, unassigned) [Example 355, (R) or (S)-2-(2-hydroxypropan-2-yl)-N′-(tricyclo[6.2.0.03,6]deca-1,3(6),7-trien-2-ylcarbamoyl)thiazole-5-sulfonimidamide]
